Among the data in US6114334A, “Piperazine derivatives as therapeutic agents” (Knoll Aktiengesellschaft, priority 1995, dated 2000) are Ki and inhibition values, retold here.

pKi: −log10 of the molar value.

For one test, the target named is T1, α2D-adrenoceptors (Rattus norvegicus, UniProt P22909).
T1 sequence (P22909 1-465): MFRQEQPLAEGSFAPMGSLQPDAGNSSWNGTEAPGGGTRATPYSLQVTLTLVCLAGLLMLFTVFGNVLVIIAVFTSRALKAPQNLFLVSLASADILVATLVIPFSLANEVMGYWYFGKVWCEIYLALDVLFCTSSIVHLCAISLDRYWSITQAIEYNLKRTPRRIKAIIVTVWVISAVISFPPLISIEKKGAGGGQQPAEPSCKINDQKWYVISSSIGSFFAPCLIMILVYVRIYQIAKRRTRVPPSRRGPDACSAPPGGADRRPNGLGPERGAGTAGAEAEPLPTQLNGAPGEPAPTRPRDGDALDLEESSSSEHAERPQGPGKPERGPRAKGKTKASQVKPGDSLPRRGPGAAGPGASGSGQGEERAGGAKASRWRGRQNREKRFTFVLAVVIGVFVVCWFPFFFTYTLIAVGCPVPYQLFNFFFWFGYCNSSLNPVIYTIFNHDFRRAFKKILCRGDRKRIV
In words: inhibition of tritiated idazoxan binding to α2D-adrenoceptors in vitro. The arrangement: species or system rat (male Charles River CD, frontal cortical tissue). The settings on record: rat frontal cortex; for pKi: [3H]idazoxan 1 nM, 0° C., 75 min; for inhibition at 1 µM: 10^-6 M, [3H]idazoxan, read-out: % displacement at 10^-6 M, α2D.

Another test concerns the target D2 dopamine receptors (Rattus norvegicus, UniProt P61169). The experiment in a line: inhibition of tritiated (S)-sulpiride binding to D2 dopamine receptors in vitro. The arrangement: species or system rat (male Charles River CD, striatal tissue). Particulars: rat striatum, tritiated (S)-sulpiride 1 nM, 4° C., 40 min.
The target of another test is T2, α2A-adrenoceptors (Homo sapiens, UniProt P08913).
T2 construct: Human cerebral cortex obtained at post-mortem; from tissue; host or cells: human cerebral cortex, post-mortem
T2 sequence (P08913 1-465): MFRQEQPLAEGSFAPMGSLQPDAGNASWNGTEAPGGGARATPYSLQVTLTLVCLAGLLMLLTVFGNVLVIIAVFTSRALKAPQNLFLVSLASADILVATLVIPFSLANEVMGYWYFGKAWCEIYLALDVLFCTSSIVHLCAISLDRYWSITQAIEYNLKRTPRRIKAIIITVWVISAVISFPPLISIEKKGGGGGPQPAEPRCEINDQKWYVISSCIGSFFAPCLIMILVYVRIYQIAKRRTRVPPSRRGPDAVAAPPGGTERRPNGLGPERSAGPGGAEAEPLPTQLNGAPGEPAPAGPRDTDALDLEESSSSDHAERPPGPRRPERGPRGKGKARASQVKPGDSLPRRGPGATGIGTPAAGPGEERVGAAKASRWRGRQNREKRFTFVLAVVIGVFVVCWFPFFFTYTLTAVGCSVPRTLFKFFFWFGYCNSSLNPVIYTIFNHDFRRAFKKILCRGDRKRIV
In words: inhibition of tritiated RX 821002 binding to α2A-adrenoceptors in vitro. Particulars: human cerebral cortex; for inhibition at 1 µM: 10^-6 M, [3H]RX 821002, read-out: % displacement at 10^-6 M, α2A. The arrangement: species or system human (cerebral cortex post-mortem). A digest of the protocol:
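Post-mortem human cerebral cortex membranes (10 mg wet tissue/tube; 50 mM Tris-HCl pH 7.5, ascorbate, EDTA) incubated 75 min at 0 °C with [3H]RX 821002 (0.2 nM as added) and compound; filtration, scintillation counting. Compounds displacing ≥50% at 10^-6 M tested at 10^-11–10^-3 M; IC50 converted to Ki.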

The next test concerns the target α1-adrenoceptors. In words: inhibition of 7-methoxy-[3H]prazosin binding to α1-adrenoceptors in vitro. The settings on record: rat whole cortex, 7-methoxy-[3H]prazosin 0.1 nM, 30° C., 30 min. The arrangement: species or system rat (male Charles River CD, whole cortical tissue). A digest of the protocol:
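Male CD rat cortical membranes in 50 mM Tris-HCl pH 7.6 were incubated 30 min at 30 °C with 7-methoxy-[3H]prazosin (0.1 nM as added), with 5 μM phentolamine (as added) defining non-specific binding, then filtered and counted. Compounds were tested at 10^-6 M for % displacement or at 10^-11–10^-3 M for IC50, and Ki was derived from IC50, ligand concentration and KD.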

In another test the target is T3, 5-HT1A receptors (Rattus norvegicus, UniProt P19327).
T3 sequence (P19327 1-422): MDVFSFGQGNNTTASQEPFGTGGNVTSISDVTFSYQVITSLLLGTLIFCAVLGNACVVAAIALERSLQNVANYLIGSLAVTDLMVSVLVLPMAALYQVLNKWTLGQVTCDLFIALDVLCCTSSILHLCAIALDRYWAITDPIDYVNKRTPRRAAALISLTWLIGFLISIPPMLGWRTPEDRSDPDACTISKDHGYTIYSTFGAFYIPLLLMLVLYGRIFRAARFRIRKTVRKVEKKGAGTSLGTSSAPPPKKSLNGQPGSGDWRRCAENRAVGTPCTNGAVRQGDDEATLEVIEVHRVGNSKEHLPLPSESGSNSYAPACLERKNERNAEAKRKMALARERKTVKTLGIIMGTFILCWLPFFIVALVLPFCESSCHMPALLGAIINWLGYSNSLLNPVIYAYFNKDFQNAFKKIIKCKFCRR
In words: inhibition of [3H]8-OH-DPAT binding to 5-HT1A receptors in vitro. Details: species or system rat (male Sprague-Dawley, hippocampal tissue). The settings on record: rat hippocampus, [3H]8-OH-DPAT 2 nM, 25° C., 30 min.

Sequence of D2 dopamine receptors (P61169 whole entry): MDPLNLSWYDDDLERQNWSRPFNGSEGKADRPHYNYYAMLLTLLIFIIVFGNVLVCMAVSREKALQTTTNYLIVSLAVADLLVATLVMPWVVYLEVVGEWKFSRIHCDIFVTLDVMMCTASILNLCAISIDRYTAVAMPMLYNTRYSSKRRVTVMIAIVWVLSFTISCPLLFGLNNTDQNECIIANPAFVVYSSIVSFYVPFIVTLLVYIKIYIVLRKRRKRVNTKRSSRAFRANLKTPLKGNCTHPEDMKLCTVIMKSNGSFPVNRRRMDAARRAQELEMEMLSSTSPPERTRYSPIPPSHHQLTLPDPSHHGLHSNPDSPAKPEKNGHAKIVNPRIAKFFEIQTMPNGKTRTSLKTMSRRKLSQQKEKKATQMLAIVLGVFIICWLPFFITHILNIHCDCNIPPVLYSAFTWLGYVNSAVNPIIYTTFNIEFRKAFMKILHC
Description for 5-HT1A receptors: Hippocampal tissue from the brains of male Sprague-Dawley rats (Charles River; weight range 150-250 g) was homogenised in ice-cold 50 mM Tris-HCl buffer (pH 7.7 when measured at 25° C., 1:40 w/v) and centrifuged at 30,000 g at 4° C. for 10 minutes. The pellet was rehomogenised in the same buffer, incubated at 37° C. for 10 minutes and centrifuged at 30,000 g at 4° C. for 10 minutes. The final pellet was resuspended in 50 mM Tris-HCl buffer (pH 7.7) containing 4 mM CaCl2. 0.1% L-ascorbic acid and 10 μM pargyline hydrochloride (equivalent to 6.25 mg wet weight of tissue/ml) and used immediately in the binding assay. Aliquots (400 μl; equivalent to 2.5 mg wet weight of tissue/tube) of this suspension were added to tubes containing the ligand (50 μl; 2 nM) and distilled water (50 μl; total binding) or 5-HT (50 μl; 10 μM; non-specific binding) or test compound (50 μl; at a single concentration of 10^-6 M or at 10 concentrations ranging from 10^-11 -10^-3 M). The ligand was [^3 H]8-hydroxy-2-(dipropylamino)tetralin ([^3 H]8-OH-DPAT) and the mixture was incubated at 25° C. for 30 minutes before the incubation was terminated by rapid filtration.
The filters were washed with ice-cold Tris-HCl buffer and dried. The filters were punched out into vials, scintillation fluid added and radioactivity determined by liquid scintillation counting. The percentage displacement of specific binding of the tritiated ligand was calculated for the single concentration (10^-6 M) of test compound. Displacement curves were then produced for those compounds which displaced ≥50% of specific binding of the tritiated ligand at 10^-6 M using a range of concentrations of the compound. The concentration which gave 50% inhibition of specific binding (IC50) was obtained from the curve. The inhibition coefficient Ki was then calculated using the formula [formula] in which [ligand] is the concentration of the tritiated ligand used and KD is the equilibrium dissociation constant for the ligand.

Consider `COc1ccccc1N1CCN(CC2(C)N=C(c3cccnc3)NC2=O)CC1` (centres unmarked) [Example 36, 4-[4-(2-methoxyphenyl)piperazin-1-ylmethyl]-4-methyl-2-(3-pyridyl)-2-imidazolin-5-one], for which the pKi on α2D-adrenoceptors was 6.90; on D2 dopamine receptors it was 6.53; on α1-adrenoceptors, 6.40; on 5-HT1A receptors it was 6.87. At α2A-adrenoceptors, the inhibition at 1 µM is 66%.
For the compound `C=CCN1C(=O)C(C)(CN2CCN(c3cccc4c3OCCO4)CC2)N=C1c1cccnc1` (centres unmarked) [Example 44, 1-allyl-4-[4-(1,4-benzodioxan-5-yl)piperazin-1-ylmethyl]-4-methyl-2-(3-pyridyl)-2-imidazolin-5-one], the figures for the inhibition at 1 µM on α2D-adrenoceptors and on α2A-adrenoceptors were 54% and 76%, respectively. Also, the negative logarithm of the Ki (pKi) at D2 dopamine receptors is 6.46; at α1-adrenoceptors, under 6.30; on 5-HT1A receptors, 7.82.
On the same counts, the results for `Cn1nc(C2CCCC2)c(CN2CCN(c3cccc4c3OCCO4)CC2)c1N` [Example 31, 5-Amino-4-[4-(1,4-benzodioxan-5-yl)piperazin-1-ylmethyl]-3-cyclopentyl-1-methylpyrazole] are 82%, 95%, under 6.30, 7.35 and 7.68.
As for `Nc1c(CN2CCN(c3cccc4c3OCCO4)CC2)c(C2CC2)nn1-c1ccccc1` [Example 10, 5-amino-4-[4-(1,4-benzodioxan-5-yl)piperazin-1-ylmethyl]-3-cyclopropyl-1-phenylpyrazole], the pKi was 6.79 on α2D-adrenoceptors; 6.43 on D2 dopamine receptors; 8.70 on α2A-adrenoceptors ([3H]RX 821002 0.2 nM, 0° C., 75 min); 7.51 on α1-adrenoceptors; 7.60 at 5-HT1A receptors.
For `C=CCn1c(N)c(CN2CCN(c3cccc4c3OCCO4)CC2)c(=O)n1-c1ccccc1` [Example 6, 2-Allyl-3-amino-4-[4-(1,4-benzodioxan-5-yl)piperazin-1-ylmethyl]-1-phenyl-3-pyrazolin-5-one], the pKi on α2D-adrenoceptors is 6.95; at D2 dopamine receptors, 6.86; on α1-adrenoceptors, 7.35; on 5-HT1A receptors, 7.66. Further, the inhibition at 1 µM at α2A-adrenoceptors was found to be 86%.
In the same order, the values of `Nc1c(CN2CCN(c3cccc4c3OCCO4)CC2)c(C2CCCC2)nn1-c1ccccc1` [Example 21, 5-Amino-4-[4-(1,4-benzodioxan-5-yl)piperazin-1-ylmethyl]-3-cyclopentyl-1-phenylpyrazole] are 7.49, 6.35, 7.68, 7.24 and 89%.
Regarding `CC1(CN2CCN(c3cccc(C(F)(F)F)c3)CC2)N=C(c2ccccc2)NC1=O` (centres unmarked) [Example 41, 4-Methyl-2-phenyl-4-{4-[3-(trifluoromethyl)phenyl]piperazin-1-ylmethyl}-2-imidazolin-5-one], the pKi is under 6.30 at α2D-adrenoceptors, 6.89 at D2 dopamine receptors, under 6.30 at α1-adrenoceptors and 6.65 at 5-HT1A receptors. Also, the inhibition at 1 µM at α2A-adrenoceptors came to 57%.
